These are literature values, as cited in publication PMC9653884, “Bisindolylmaleimides New Ligands of CaM Protein” (Molecules, 2022).

This data set deals with CaM. The note with it: read-out: Kd of reported CaM inhibitor.

As for `NCCCCCCNS(=O)(=O)c1cccc2c(Cl)cccc12` [W7], the Kd is 7 µM.

As to `NCCc1c[nH]c2ccc(O)cc12` [Serotonin], the Kd was 0.71 µM.

Consider `CC[C@]1(O)C[C@@H]2CN(CCc3c([nH]c4ccccc34)[C@@](C(=O)OC)(c3cc4c(cc3OC)N(C)[C@@H]3[C@]45CCN4CC=C[C@@](CC)(C[C@@]36OC(=O)N(CCCl)C6=O)[C@H]45)C2)C1` [KAR-2], for which the Kd was 5 µM.

With `CN(C)CCCN1c2ccccc2CCc2ccccc21` [Imipramine], the Kd is 14 µM.
